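Results reflect a 48-hour exposure of cells in 96-well plates to compound at five concentrations. GI50 marks 50% less growth.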 Active and inactive are the calls of the source. Rule as the data show it: active = GI50 up to about 1.1 µM and inactive = higher.
Experiments:
Assay in all cases: NCI-60 cell line screen, 48 h
T47D = system: T47D
BT-549 = system: BT-549
DLD-1 = system: DLD-1
XF498 = system: XF498
SNB-78 = system: SNB-78
DMS-273 = system: DMS-273
HOP-18 = system: HOP-18
LXFL 529 = system: LXFL 529

For `COc1ccc2c(c1)CCCc1c-2nc2ccccc2c1N`, the GI50 (T47D) was 12.4 µM (inactive) and the GI50 (BT-549) was 16.2 µM (inactive).

`C=C[C@H]1CN2CCc3c([nH]c4c([C@@H]5CCCN5C)c(O)ccc34)[C@@H]2C[C@@H]1C[C@H]1c2[nH]c3ccccc3c2CCN1C` was tested, and the GI50 (T47D) was 1.48 µM (inactive) and the GI50 (BT-549) was 1.75 µM (inactive).

For `O=NN(CCF)C(=O)NC1CCSCC1`, the GI50 (DLD-1) was > 100 µM (inactive), the GI50 (XF498) was < 0.01 µM (active) and the GI50 (SNB-78) was > 100 µM (inactive). The GI50 (DMS-273) was > 100 µM (inactive) and the GI50 (HOP-18) was > 100 µM (inactive).

With `O=C(O)c1nn(-c2ccccc2)nc1-c1nn(-c2ccccc2)nc1C(=O)O` the GI50 (T47D) was > 100 µM (inactive).

For `CCCCCCCCCCCCCCCCOCC(O)CO` (configuration not stated), the GI50 (T47D) was 23.4 µM (inactive) and the GI50 (BT-549) was 22.2 µM (inactive).

`CC1CC2=Nc3ccccc3NC(c3ccccc3)C2=C(O)O1` (configuration not stated) was tested, and the GI50 (DLD-1) was > 100 µM (inactive), the GI50 (LXFL 529) was > 100 µM (inactive) and the GI50 (SNB-78) was > 100 µM (inactive). For the same compound, the GI50 (DMS-273) was > 100 µM (inactive) and the GI50 (HOP-18) was > 100 µM (inactive).

With `O=[N+]([O-])c1ccc(Nc2nc3ccccc3s2)cc1` the GI50 (T47D) was 3.03 µM (inactive) and the GI50 (BT-549) was 27.2 µM (inactive).

`Cc1c(CNc2ccc(C(=O)NC(CCCNC(=O)c3ccccc3C(=O)O)C(=O)O)cc2)cnc2nc(N)nc(N)c12` (configuration not stated) was tested, and the GI50 (T47D) was 0.0615 µM (active) and the GI50 (BT-549) was 1.11 µM (active).

For `COc1nc(O)c(N)c(NC2OC(CO)C(O)C(O)C2O)n1` (configuration not stated), the GI50 (DLD-1) was > 100 µM (inactive), the GI50 (XF498) was > 100 µM (inactive) and the GI50 (SNB-78) was > 100 µM (inactive). For the same compound, the GI50 (DMS-273) was > 100 µM (inactive) and the GI50 (HOP-18) was > 100 µM (inactive).

`CCN(CC)C(=S)N/N=C(\C)c1cccc(C)n1` was tested, and the GI50 (T47D) was < 0.01 µM (active) and the GI50 (BT-549) was 0.776 µM (active).

In the case of `CCC(C(C)N1CC(=O)NC(=O)C1)N1CC(=O)NC(=O)C1` (configuration not stated), the GI50 (DLD-1) is reported as > 31.3 µM (inactive), the GI50 (XF498) is reported as 14.5 µM (inactive) and the GI50 (SNB-78) is reported as > 66.4 µM (inactive). The GI50 (DMS-273) was 12.3 µM (inactive) and the GI50 (HOP-18) was > 100 µM (inactive).

`COc1ccccc1C1C(C(=O)O)=C(CO)Oc2cc3c(cc21)OCO3` (configuration not stated) was tested, and the GI50 (LXFL 529) was > 100 µM (inactive), the GI50 (SNB-78) was > 100 µM (inactive) and the GI50 (DMS-273) was > 100 µM (inactive). For the same compound, the GI50 (HOP-18) was > 100 µM (inactive).

In the case of `CN(C)C(=S)SCc1ccccc1`, the GI50 (T47D) is reported as 0.033 µM (active) and the GI50 (BT-549) is reported as 87.9 µM (inactive).

In the case of `CCCCSCC(NC(=O)/C=C/c1c(C)[nH]c(=O)[nH]c1=O)C(=O)OC` (configuration not stated), the GI50 (DLD-1) is reported as 54.8 µM (inactive), the GI50 (SNB-78) is reported as 47 µM (inactive) and the GI50 (DMS-273) is reported as 88.3 µM (inactive). The GI50 (HOP-18) was 61.2 µM (inactive).

`C[N+](C)(N)c1nc(N)c(C#N)c(C#N)c1C#N` was tested, and the GI50 (T47D) was > 10 µM (inactive).

For `CC1C/C(=C\c2ccc(O)c(O)c2)C(=O)/C(=C/c2ccc(O)c(O)c2)C1` (configuration not stated), the GI50 (T47D) was 4.57 µM (inactive).

In the case of `S=C(NCc1ccccn1)N/N=C/c1ccccn1`, the GI50 (T47D) is reported as < 0.01 µM (active).

`Cn1cc(C(=O)c2nccc3c2cnc2ccccc23)ccc1=O` was tested, and the GI50 (T47D) was > 100 µM (inactive).

`N=C(N)NS(=O)(=O)c1ccc(Nc2c3ccccc3nc3c(C(=O)NCCO)cccc23)cc1` was tested, and the GI50 (T47D) was 0.148 µM (active) and the GI50 (BT-549) was 0.143 µM (active).

`CC(=O)c1cc(I)c(O)c2ncccc12` was tested, and the GI50 (T47D) was 5.74 µM (inactive) and the GI50 (BT-549) was 5.07 µM (inactive).

For `Cc1cc(C(C)(C)C)cc(Cc2cc(C(C)(C)C)cc(Cc3cc(C(C)(C)C)cc(C)c3O)c2O)c1O`, the GI50 (DLD-1) was 6.05 µM (inactive), the GI50 (LXFL 529) was 8.04 µM (inactive) and the GI50 (XF498) was 1.65 µM (inactive). The GI50 (SNB-78) was 4.98 µM (inactive), the GI50 (DMS-273) was 10.9 µM (inactive) and the GI50 (HOP-18) was 15.4 µM (inactive).

`Cc1ccc(S(=O)(=O)N/N=C2/C3CCC(C3)C2c2ccccc2)cc1` (configuration not stated) was tested, and the GI50 (T47D) was > 100 µM (inactive) and the GI50 (BT-549) was > 100 µM (inactive).

`Cc1ccc(C(=O)N/N=C(\N=N\c2cccc([N+](=O)[O-])c2)c2ccc(N(CCC#N)CCC#N)cc2C)cc1` was tested, and the GI50 (T47D) was 9.18 µM (inactive) and the GI50 (BT-549) was 19.6 µM (inactive).

With `O=C(Cn1cc(Br)c(=O)[nH]c1=O)c1ccc(-c2ccccc2)cc1` the GI50 (T47D) was > 100 µM (inactive) and the GI50 (BT-549) was 3.18 µM (inactive).

In the case of `NC(=O)CC(/N=C1\C(=O)OC(C(O)CO)\C1=N/C(CC(N)=O)C(=O)O)C(=O)O` (configuration not stated), the GI50 (T47D) is reported as > 100 µM (inactive).

`O=C(NCCNCCCNC(=O)c1cc(-c2ccccc2)nc2ccccc12)c1cccc(OCc2ccccc2)c1OCc1ccccc1` was tested, and the GI50 (T47D) was 2.18 µM (inactive) and the GI50 (BT-549) was 1.72 µM (inactive).

In the case of `CCCCN(CCCC)C(=O)C(=O)C(C#N)c1ccc(C)cc1` (configuration not stated), the GI50 (DLD-1) is reported as > 100 µM (inactive), the GI50 (LXFL 529) is reported as > 100 µM (inactive) and the GI50 (XF498) is reported as > 100 µM (inactive). For the same compound, the GI50 (SNB-78) was > 100 µM (inactive), the GI50 (DMS-273) was > 100 µM (inactive) and the GI50 (HOP-18) was > 100 µM (inactive).

For `CCOP(=O)(CCCC(O)CNc1nc(N)nc(Cl)c1/N=N/c1ccc(Cl)cc1)OCC` (configuration not stated), the GI50 (T47D) was 5.09 µM (inactive) and the GI50 (BT-549) was 6.28 µM (inactive).

With `CC1(C)c2ccccc2C(C)(C)C(C(=O)Nc2ccccc2)C1C(=O)O` (configuration not stated) the GI50 (DLD-1) was > 100 µM (inactive), the GI50 (LXFL 529) was > 100 µM (inactive) and the GI50 (SNB-78) was > 100 µM (inactive). For the same compound, the GI50 (DMS-273) was > 100 µM (inactive) and the GI50 (HOP-18) was > 100 µM (inactive).

In the case of `Cc1cc(-n2c(/C=C/c3ccc(Cl)cc3)nc3cc(Cl)ccc3c2=O)on1`, the GI50 (T47D) is reported as > 50 µM (inactive) and the GI50 (BT-549) is reported as > 50 µM (inactive).

For `CC1CN=C(N(C(=O)Nc2ccc(Cl)c(Cl)c2)c2ccccc2)S1` (configuration not stated), the GI50 (T47D) was 20.2 µM (inactive).

With `CC1(C)N=C(C2CCCN2C(=O)OCc2ccccc2)OC1=O` (configuration not stated) the GI50 (BT-549) was > 100 µM (inactive).

`Cc1ccc2c(c1)/C(=N/Nc1ccccc1[N+](=O)[O-])C(=O)N2` was tested, and the GI50 (T47D) was 2.83 µM (inactive) and the GI50 (BT-549) was 45.8 µM (inactive).

`COC1CCC(OS(C)(=O)=O)CO1` (configuration not stated) was tested, and the GI50 (LXFL 529) was > 100 µM (inactive) and the GI50 (SNB-78) was > 100 µM (inactive).
